Drawing on PubChem BioAssay (NCI), this text covers TGI and GI50 for eight molecules.

SMILES strings stand for the structures.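 Method: 48-hour compound exposure of cells in 96-well plates, five concentrations, linear interpolation of endpoints. The concentration for 50% growth inhibition is given as GI50. TGI marks complete inhibition of growth.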

Among the test systems are A498 renal; HCC-2998 colon; HL-60(TB) leukemia; NCI-H460 lung; LOX IMVI melanoma; U251 CNS; UACC-62 melanoma; RXF 393 renal; 786-0 renal; IGROV1 ovarian.
Assay in all cases: DTP human tumour cell line panel, 48 h

What is called TGI is the concentration at which net growth stops. In the case of `CCOC(=N)CC(=O)Nc1cccc(Cl)c1`, the concentration for total growth inhibition (TGI) with A498 renal, with HCC-2998 colon, with HL-60(TB) leukemia, with NCI-H460 lung, with LOX IMVI melanoma and in the assay with U251 CNS was over 100 µM throughout. Also, the concentration for total growth inhibition (TGI) in the assay on UACC-62 melanoma, with RXF 393 renal, with 786-0 renal and with IGROV1 ovarian was over 100 µM throughout.
As a reminder, the GI50 is the concentration giving 50% growth inhibition. For the molecule `Cc1cc2nc3cc(C)c(N)cc3[n+](-c3ccccc3)c2cc1N`, the GI50 was 54.8 µM with A498 renal; 4.05 µM in the assay with HCC-2998 colon; 4.92 µM in the assay on HL-60(TB) leukemia; 3.57 µM in the assay on NCI-H460 lung; 4.78 µM in the assay with LOX IMVI melanoma; 0.945 µM in the assay on U251 CNS. The GI50 with UACC-62 melanoma was 6.19 µM; in the assay on RXF 393 renal, 17.5 µM; in the assay with 786-0 renal it was 6.26 µM; in the assay on IGROV1 ovarian it was 12.4 µM. Also, the concentration for total growth inhibition (TGI) in the assay on A498 renal was over 100 µM; in the assay on HCC-2998 colon, over 46 µM; with HL-60(TB) leukemia it was over 100 µM; with NCI-H460 lung it was 19.7 µM; in the assay on LOX IMVI melanoma, over 100 µM; in the assay with U251 CNS, over 100 µM. The TGI in the assay with UACC-62 melanoma is 30.7 µM; with RXF 393 renal it was over 100 µM; with 786-0 renal, over 100 µM; in the assay on IGROV1 ovarian, over 100 µM.
Take `O=c1c(Br)cc2c(-c3ccccc3)c3cc(Br)c(O)c(Br)c3oc-2c1Br`: the concentration for total growth inhibition (TGI) in the assay on A498 renal, with HCC-2998 colon, in the assay with HL-60(TB) leukemia, in the assay with NCI-H460 lung, with LOX IMVI melanoma and in the assay with U251 CNS was over 100 µM throughout. The TGI in the assay with UACC-62 melanoma, in the assay with RXF 393 renal, in the assay on 786-0 renal and with IGROV1 ovarian was over 100 µM in each case.
For the molecule `CN1CCN(Cc2ccc(NC(=O)c3cncc(C#Cc4cncc5nccnc45)c3)cc2C(F)(F)F)CC1`, the GI50 was 0.772 µM in the assay with A498 renal; 1.73 µM in the assay with HCC-2998 colon; 0.342 µM with HL-60(TB) leukemia; 2.21 µM in the assay on NCI-H460 lung; 0.695 µM with LOX IMVI melanoma; 5.67 µM with U251 CNS. Moreover, the GI50 is 1.55 µM with UACC-62 melanoma, 2.21 µM with RXF 393 renal, 5.31 µM with 786-0 renal and 1.52 µM in the assay on IGROV1 ovarian. For the same molecule, the total growth inhibition concentration (TGI) with A498 renal turned out to be 3.22 µM; in the assay with HCC-2998 colon, 8.48 µM; in the assay on HL-60(TB) leukemia, 4.76 µM; with NCI-H460 lung, 8.46 µM; in the assay on LOX IMVI melanoma it was 5.48 µM; with U251 CNS, 13 µM. For the same molecule, the concentration for total growth inhibition (TGI) with UACC-62 melanoma is 7.21 µM; with RXF 393 renal, 7.47 µM; in the assay on 786-0 renal, 12.5 µM; with IGROV1 ovarian, 7.07 µM.
As to `C/C(=N\N=C(\[Se])N(C)C)c1ccccn1`, the concentration for total growth inhibition (TGI) is 9.94 µM in the assay on A498 renal; 13.9 µM in the assay on HCC-2998 colon; 0.343 µM in the assay with HL-60(TB) leukemia; 4.17 µM in the assay with NCI-H460 lung; 12.8 µM in the assay on LOX IMVI melanoma; 8.65 µM with U251 CNS. Moreover, the concentration for total growth inhibition (TGI) in the assay on UACC-62 melanoma amounted to 2.4 µM; with RXF 393 renal it was 6.23 µM; in the assay on 786-0 renal it was 18.3 µM; with IGROV1 ovarian, 10.1 µM.
As for `COc1cccc2c1C(=O)c1c(O)c3c(c(O)c1C2=O)C[C@@](O)(C(=O)CO)CC3OC1CC(O)C(O)C(C)O1` (stereo not given in full), the TGI in the assay with A498 renal turned out to be 1.29 µM; in the assay on HCC-2998 colon it was 2.08 µM; in the assay with HL-60(TB) leukemia, 0.55 µM; in the assay on NCI-H460 lung, 1.8 µM; with LOX IMVI melanoma, 2.53 µM; with U251 CNS it was 13.9 µM. Further, the total growth inhibition concentration (TGI) is 0.492 µM in the assay on UACC-62 melanoma, 0.957 µM in the assay on RXF 393 renal, 12.5 µM with 786-0 renal and 23.6 µM with IGROV1 ovarian.
In the case of `CCc1cc2ncc(CN3CCN(c4ccc(C(=O)NC)nc4)CC3)cc2[nH]c1=O`, the GI50 was over 100 µM in the assay with A498 renal; 87.9 µM in the assay with HCC-2998 colon; 32.1 µM in the assay on HL-60(TB) leukemia; 33.5 µM in the assay on NCI-H460 lung; 60 µM in the assay with LOX IMVI melanoma; over 100 µM with U251 CNS. In addition, the GI50 in the assay on UACC-62 melanoma was 39.2 µM; in the assay with RXF 393 renal it was 17 µM; with 786-0 renal, 79.6 µM; in the assay on IGROV1 ovarian it was 57.4 µM. For the same molecule, the concentration for total growth inhibition (TGI) with A498 renal, with HCC-2998 colon, in the assay with HL-60(TB) leukemia, with NCI-H460 lung, with LOX IMVI melanoma and with U251 CNS was over 100 µM each time. Moreover, the total growth inhibition concentration (TGI) with UACC-62 melanoma, in the assay with RXF 393 renal, in the assay on 786-0 renal and in the assay with IGROV1 ovarian was over 100 µM in each case.
As for `COC(=O)C1C=NNC1C(=O)OC` (stereo not given), the TGI in the assay on A498 renal, in the assay on HCC-2998 colon, in the assay on HL-60(TB) leukemia, in the assay with NCI-H460 lung, with LOX IMVI melanoma and in the assay with U251 CNS was over 100 µM throughout. For the same molecule, the TGI in the assay with UACC-62 melanoma, with RXF 393 renal, with 786-0 renal and with IGROV1 ovarian was over 100 µM each time.
